Measured values reported in PMC3391587 (Journal of Nuclear Medicine, 2012).

Experiment: HPLC radiometabolite analysis of arterial plasma after [^18F]DPA-714 injection
Assay type: in vivo
Conditions: rat arterial plasma, mean ± SD

What does the source list for CCN(CC)C(=O)Cc1c(-c2ccc(OCC[18F])cc2)nn2c(C)cc(C)nc12 [[^18F]DPA-714, N,N-diethyl-2-(2-(4-(2-(^18F)-fluoroethoxy)phenyl)-5,7-dimethylpyrazolo[1,5-a]pyrimidin-3-yl)acetamide]?
% [^18F]DPA-714 (parent) in plasma (P.I. time 12 (min), N=7): 68 ± 7.4%; % [^18F]DPA-714 (parent) in plasma (P.I. time 30 (min), N=7): 44 ± 8.9%; % [^18F]DPA-714 (parent) in plasma (P.I. time 60 (min), N=7): 27 ± 6.2%; % [^18F]DPA-714 (parent) in plasma (P.I. time 90 (min), N=5): 22 ± 17.8%
